Assay results: patent publication US10183015B2, “Heterocyclic compounds and methods of use” (Medivation Technologies LLC, priority 2015, dated 2019)
Where “and” joins values, the source holds several entries; their conditions need not be identical. Equal entries are not always repeated.

How the values were obtained:
Type in all cases: in vivo
[1] = tested on: PERK; test: Short-term Paigen-diet NASH mouse model: hepatic PERK gene expression (RT-qPCR); details: 21 days
Procedure: (§1) To investigate whether Compound #37 prevents the development of pathology associated with NASH and steatosis in an acute exploratory disease model, a study was conducted using a diet-induced acute liver steatosis model in mice. As described below, in this study, C57BL/6J mice were initiated on the Paigen diet and simultaneously treated with Compound #37 (5, 20, and 40 mg/kg/day) or vehicle control (20% HPβCD 10 mL/kg/day) by oral gavage for 21 days.
(§2) After acclimation, 8-week old male C57Bl/6J mice (Charles River) weighing about 25 g were randomized in 4 groups according their body weight and treated once daily around noon by oral gavage with vehicle, or Compound #37 at various for 21 days as follows: Group 1: vehicle-20% (2-hydroxypropyl)-β-cyclodextrin (HP-β-CD) (n=10); Group 2: Compound #37, 5 mg/kg (n=10) Group 3: Compound #37, 20 mg/kg (n=10) Group 4: Compound #37, 40 mg/kg (n=10). During the treatment period, body weight and food intake (measured over 24h) were measured 3 times per week and once a week, respectively. During the acclimation, all mice were fed a standard diet (Special Diets Services RM1 (E), product no. 801492) and tap water ad libitum. After the acclimation period, mice were fed until the end of the experiment with a 60% high fat Paigen diet (60 kcal % fat, 1.25% cholesterol, and 0.5% cholate; D11061901, Research Diet) and tap water ad libitum.
(§3) Gene expression analysis. Hepatic expression levels of genes involved in lipid metabolism (FAS, SREBP1, ACC1, SCD1), cholesterol metabolism (HMG-CoAR, LDLR), SREBP proteolysis (SCAP, INSIG1), ER stress (PERK), oxidative stress (NRF2), inflammation (MCP-1), and fibrosis (collagen 1α1) were quantified by RTqPCR. Expression level was normalized to 18S gene expression and relative expression to vehicle group was calculated with the […] method.

[2] = tested on: Coll1a1; test: Short-term Paigen-diet NASH mouse model: hepatic Coll1a1 (collagen 1α1) gene expression (RT-qPCR); design: key to Fibrosis gene expression Coll1a1: Dct: Ct of gene minus Ct of 18S reference; key to Fibrosis gene expression Coll1a1: 2DDct: expression relative to vehicle group, 2^-ΔΔCt method, 18S-normalized; details: 21 days
Procedure: as §1, §2, §3

[3] = tested on: FAS; test: DIN mouse model: hepatic FAS gene expression; design: key to 2^DDct: expression relative to vehicle group, normalized to 18S; details: 20 mg/kg group; for 18S: Gene Expression: FAS table, 18S reference; for 2^DDct / DDct / Dct / FAS: Gene Expression: FAS
Procedure: as §3
(§4) Male C57Bl/6J mice (8 weeks old) were housed in enriched ventilated cages (31×12.5×12.7 cm) throughout the experimental phase. Animals' cages litters were changed at least once a week. Animal were housed 5 per cage on inverted 12-hour light cycle (at 09:00 am lights off), 22±2° C. and 55±10% relative humidity. The acclimation period was 20 days. During the acclimation period, all mice were fed a standard diet (RM1 (E) 801492, SDS) and tap water ad libitum. After the acclimation period, mice were fed with the DIN diet (60% fat, cholesterol enriched) and fructose-enriched tap water ad libitum until the end of the experiment.
(§5) At 6 weeks of diet, mice were 4-hour fasted (09:00 am to 1:00 pm) and blood (150 μl/EDTA) was collected at 01:00 pm by retro-orbital bleeding under isoflurane anesthesia. Mice were then allocated in 2 homogenous groups (n=12/group) according to their plasma levels of ALT (average levels: 685U/L), AST (average levels: 627U/L) and HOMA-IR index (average value: 4.7), into 2 homogenous groups (see values at day 0 in Tables 15A and 15B ALT/AST and Tables 16A and 16B for HOMA-IR). Mice were then treated once daily by oral gavage with vehicle (Group 1) or Compound #37 at 20 mg/kg (Group 2) for 70 days.
(§6) Hepatic expression levels of genes involved in lipid (FAS, SREBP1, ACC1, SCD1), cholesterol metabolism (HMG-CoAR, LDLR), in SREBP proteolysis (SCAP, INSIG1), in ER stress (PERK), oxidative stress (NRF2), and inflammation (MCP-1) were not changed. However, expression of collagen 1α1, involved in liver fibrosis, was reduced by 66% in mice treated with Compound #37 (p<0.05 vs. vehicle).

[4] = tested on: PERK; test: DIN mouse model: hepatic PERK gene expression; details: liver, 20 mg/kg group
Procedure: as §3, §4, §5, §6

[5] = tested on: MCP-1; test: DIN mouse model: hepatic MCP-1 gene expression; details: liver, 20 mg/kg group
Procedure: as §3, §4, §5, §6

[6] = individual animals, normalised to 18S, 20 mg/kg
[7] = individual animals, vs vehicle mean, 20 mg/kg

Compound: CC(C)Cc1cc(-c2nc(-c3ccc(NS(=O)(=O)C(F)(F)F)cc3Cl)cs2)ccn1 [Compound 37, N-(3-chloro-4-(2-(2-isobutylpyridin-4-yl)thiazol-4-yl)phenyl)-1,1,1-trifluoromethanesulfonamide]
- ER and oxidative stress gene expression PERK: 2DDct ([1]; 5 mg/kg, group mean, n 10): 0.91
- ER and oxidative stress gene expression PERK: 18S ([1]; 5 mg/kg, group mean, n 10): 12.3
- ER and oxidative stress gene expression PERK: DDct ([1]; 5 mg/kg, group mean, n 10): 0.32
- ER and oxidative stress gene expression PERK: Dct ([1]; 5 mg/kg, group mean, n 10): 15.4
- ER and oxidative stress gene expression PERK: PERK ([1]; 5 mg/kg, group mean, n 10): 27.6
- ER and oxidative stress gene expression PERK: 2DDct ([1]; 5 mg/kg, individual animals): 1.29 and 0.54 and 0.35 and 1.5 and 0.42 and 0.58 and 1.06 and 1.56 and 0.97 and 0.79
- ER and oxidative stress gene expression PERK: 18S ([1]; 5 mg/kg, individual animals): 13.46 and 13.11 and 11.61 and 13.35 (2×) and 12.03 and 11.6 and 11.79 and 11.14 and 11.12
- ER and oxidative stress gene expression PERK: DDct ([1]; 5 mg/kg, individual animals): −0.36 and 0.9 and 1.52 and −0.58 and 1.24 and 0.8 and −0.08 and −0.64 and 0.04 and 0.34
- ER and oxidative stress gene expression PERK: Dct ([1]; 5 mg/kg, individual animals): 14.68 and 15.94 and 16.56 and 14.46 and 16.28 and 15.84 and 14.96 and 14.4 and 15.08 and 15.38
- ER and oxidative stress gene expression PERK: PERK ([1]; 5 mg/kg, individual animals): 28.14 and 29.05 and 28.17 and 27.81 and 28.31 and 29.19 and 26.56 and 26.19 and 26.22 and 26.5
- ER and oxidative stress gene expression PERK: 2DDct ([1]; 20 mg/kg, group mean, n 6): 1.33
- ER and oxidative stress gene expression PERK: 18S ([1]; 20 mg/kg, group mean, n 6): 12.2
- ER and oxidative stress gene expression PERK: DDct ([1]; 20 mg/kg, group mean, n 6): −0.27
- ER and oxidative stress gene expression PERK: Dct ([1]; 20 mg/kg, group mean, n 6): 14.8
- ER and oxidative stress gene expression PERK: PERK ([1]; 20 mg/kg, group mean, n 6): 27
- ER and oxidative stress gene expression PERK: 2DDct ([1]; 20 mg/kg, individual animals): 1.04 and 1.05 and 1.27 and 2.68 and 0.61 and 1.34
- ER and oxidative stress gene expression PERK: 18S ([1]; 20 mg/kg, individual animals): 12.91 and 12.29 and 12.2 and 13.03 and 11.49 and 11.26
- ER and oxidative stress gene expression PERK: DDct ([1]; 20 mg/kg, individual animals): −0.05 and −0.07 and −0.34 and −1.42 and 0.72 and −0.42
- ER and oxidative stress gene expression PERK: Dct ([1]; 20 mg/kg, individual animals): 14.99 and 14.97 and 14.7 and 13.62 and 15.76 and 14.62
- ER and oxidative stress gene expression PERK: PERK ([1]; 20 mg/kg, individual animals): 27.9 and 27.26 and 26.9 and 26.65 and 27.25 and 25.88
- Fibrosis gene expression Coll1a1: 2DDct ([2]; 5 mg/kg, group mean, n 10): 0.88
- Fibrosis gene expression Coll1a1: Coll1a1 ([2]; 5 mg/kg, group mean, n 10): 27.2
- Fibrosis gene expression Coll1a1: DDct ([2]; 5 mg/kg, group mean, n 10): 0.84
- Fibrosis gene expression Coll1a1: Dct ([2]; 5 mg/kg, group mean, n 10): 15
- Fibrosis gene expression Coll1a1: 2DDct ([2]; 5 mg/kg, individual animals): 0.86 and 0.27 and 0.96 and 0.69 and 0.15 and 0.05 and 1.75 and 2.26 and 1.2 and 0.57
- Fibrosis gene expression Coll1a1: Coll1a1 ([2]; 5 mg/kg, individual animals): 27.81 and 29.15 and 25.8 and 28.03 and 28.92 and 31.82 and 24.93 and 24.75 and 25.01 and 26.07
- Fibrosis gene expression Coll1a1: DDct ([2]; 5 mg/kg, individual animals): 0.21 and 1.9 and 0.05 and 0.54 and 2.75 and 4.33 and −0.81 and −1.18 and −0.27 and 0.81
- Fibrosis gene expression Coll1a1: Dct ([2]; 5 mg/kg, individual animals): 14.4 and 16.04 and 14.19 and 14.68 and 16.89 and 18.47 and 13.33 and 12.96 and 13.87 and 14.95
- Fibrosis gene expression Coll1a1: 2DDct ([2]; 20 mg/kg, group mean, n 5): 0.68
- Fibrosis gene expression Coll1a1: Coll1a1 ([2]; 20 mg/kg, group mean, n 6): 26.6
- Fibrosis gene expression Coll1a1: DDct ([2]; 20 mg/kg, group mean, n 6): 0.24
- Fibrosis gene expression Coll1a1: Dct ([2]; 20 mg/kg, group mean, n 6): 14.4
- Fibrosis gene expression Coll1a1: 2DDct ([2]; 20 mg/kg, individual animals): 0.28 and 0.85 and 0.66 and 1 and 0.61 and 3.91*
- Fibrosis gene expression Coll1a1: Coll1a1 ([2]; 20 mg/kg, individual animals): 28.9 and 26.66 and 26.93 and 27.17 and 26.34 and 23.43
- Fibrosis gene expression Coll1a1: DDct ([2]; 20 mg/kg, individual animals): 1.85 and 0.23 and 0.59 and 0 and 0.71 and −1.97
- Fibrosis gene expression Coll1a1: Dct ([2]; 20 mg/kg, individual animals): 15.99 and 14.37 and 14.73 and 14.14 and 14.85 and 12.17
- 18S ([3]; individual animal, 20 mg/kg): 12.55 (2×) and 12.84 and 12.43 and 12.35 (2×) and 12.59 and 11.73 and 12.51 and 11.5 and 11.55
- 18S ([3]; mean, n 11): 12.3
- 2^DDct ([3]; individual animal, 20 mg/kg): 2.46 and 1.29 and 0.37 and 1.47 and 0.36 and 1.30 and 0.81 and 0.64 and 0.33 and 0.21 and 1.77
- DDct ([3]; individual animal, 20 mg/kg): −1.30 and −0.37 and 1.45 and −0.56 and 1.48 and −0.38 and 0.31 and 0.64 and 1.62 and 2.28 and −0.82
- Dct ([3]; individual animal, 20 mg/kg): 7.2 and 8.13 and 9.95 and 7.94 and 9.98 and 8.12 and 8.81 and 9.14 and 10.12 and 10.78 and 7.68
- FAS ([3]; individual animal, 20 mg/kg): 19.75 and 20.68 and 22.79 and 20.37 and 22.33 (2×) and 20.71 and 20.54 and 21.65 and 21.62 and 20.03
- 2^DDct ([3]; mean, n 11): 1
- DDct ([3]; mean, n 11): 0.40
- Dct ([3]; mean, n 11): 8.9
- FAS ([3]; mean, n 11): 21.2
- PERK Dct [4, 6]: 14.23 and 14.41 and 16.11 and 14.89 and 14.95 and 14.18 and 14.85 and 14.3 and 15.75 and 16.07 and 12.9
- PERK 2^DDct [4, 7]: 1.2 and 1.06 and 0.33 and 0.76 and 0.73 and 1.24 and 0.78 and 1.15 and 0.42 and 0.34 and 3.02
- PERK DDct [4, 7]: −0.27 and −0.09 and 1.61 and 0.39 and 0.45 and −0.32 and 0.35 and −0.2 and 1.25 and 1.57 and −1.6
- PERK (Ct) ([4]; individual animals, 20 mg/kg): 26.78 and 26.96 and 28.95 and 27.32 and 27.3 and 26.77 and 26.58 and 26.81 and 27.25 and 27.62 and 25.25
- PERK 2^DDct ([4]; mean, n 11): 1.00
- PERK (Ct) ([4]; mean, n 11): 27.1
- PERK DDct ([4]; mean, n 11): 0.29
- PERK Dct ([4]; mean, n 11): 14.8
- MCP-1 Dct [5, 6]: 14.34 and 13.63 and 15.61 and 13.59 and 13.54 and 13.66 and 14.89 and 16.32 and 15.5 and 15.74 and 11.79
- MCP-1 2^DDct [5, 7]: 0.61 and 0.99 and 0.25 and 1.02 and 1.06 and 0.97 and 0.41 and 0.15 and 0.27 and 0.23 and 3.55
- MCP-1 DDct [5, 7]: 0.72 and 0.01 and 1.99 and −0.03 and −0.08 and 0.04 and 1.27 and 2.7 and 1.88 and 2.12 and −1.83
- MCP-1 (Ct) ([5]; individual animals, 20 mg/kg): 26.89 and 26.18 and 28.45 and 26.02 and 25.89 and 26.25 and 26.62 and 28.83 and 27 and 27.29 and 24.14
- MCP-1 2^DDct ([5]; mean, n 11): 0.87
- MCP-1 (Ct) ([5]; mean, n 11): 26.7
- MCP-1 DDct ([5]; mean, n 11): 0.80
- MCP-1 Dct ([5]; mean, n 11): 14.4
